Data reported in ChEMBL document CHEMBL1201862, “PubChem BioAssay data set” (2004).
The source made the active and inactive calls. Rule as the data show it, for most assays here: actives have a measured IC50 and inactives only a lower limit.

Legend:
Format in all cases: functional
[1] = biological target: T1, Protein RecA (Mycobacterium tuberculosis, UniProt P9WHJ3); test: Fluorescence Cell-Free Homogeneous Dose Retest to Identify Inhibitors of RecA-Intein Splicing Activity. [Related pubchem assays (depositor defined):AID2097, AID2223, AID489010, AID492950]
T1 sequence (P9WHJ3 whole entry): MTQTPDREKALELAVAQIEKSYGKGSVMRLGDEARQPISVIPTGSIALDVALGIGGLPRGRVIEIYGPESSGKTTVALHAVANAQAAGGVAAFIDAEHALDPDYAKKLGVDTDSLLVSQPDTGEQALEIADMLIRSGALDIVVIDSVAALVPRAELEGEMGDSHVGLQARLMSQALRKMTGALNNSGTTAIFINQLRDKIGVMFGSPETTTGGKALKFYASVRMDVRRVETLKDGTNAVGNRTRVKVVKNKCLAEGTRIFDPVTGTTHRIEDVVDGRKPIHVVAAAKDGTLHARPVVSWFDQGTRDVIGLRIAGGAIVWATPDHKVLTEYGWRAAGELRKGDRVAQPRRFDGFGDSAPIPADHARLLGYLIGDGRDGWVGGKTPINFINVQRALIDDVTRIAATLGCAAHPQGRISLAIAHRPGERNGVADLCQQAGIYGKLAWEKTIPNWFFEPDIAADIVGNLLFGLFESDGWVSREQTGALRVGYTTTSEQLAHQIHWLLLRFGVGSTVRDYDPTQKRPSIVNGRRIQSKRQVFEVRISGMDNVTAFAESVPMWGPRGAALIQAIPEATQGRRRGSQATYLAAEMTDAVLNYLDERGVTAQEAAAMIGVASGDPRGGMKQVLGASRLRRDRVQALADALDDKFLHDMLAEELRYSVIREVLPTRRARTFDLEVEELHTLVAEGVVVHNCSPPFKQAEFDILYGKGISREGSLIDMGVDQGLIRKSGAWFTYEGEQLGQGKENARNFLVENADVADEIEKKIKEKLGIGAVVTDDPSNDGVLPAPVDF

[2] = biological target: T2, Sentrin-specific protease 8 (Homo sapiens, UniProt Q96LD8);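 also: luminescence read-out of SENP8 inhibition, dose-response confirmation following an ultra-high-throughput screen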
T2 sequence (Q96LD8 whole entry): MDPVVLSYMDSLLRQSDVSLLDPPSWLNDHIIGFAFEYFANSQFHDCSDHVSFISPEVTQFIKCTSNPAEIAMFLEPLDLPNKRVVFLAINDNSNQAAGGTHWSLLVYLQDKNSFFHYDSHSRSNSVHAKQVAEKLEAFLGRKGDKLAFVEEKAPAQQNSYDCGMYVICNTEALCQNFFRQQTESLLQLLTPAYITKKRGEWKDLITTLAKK

[3] = biological target: T3, Apoptotic protease-activating factor 1 (Homo sapiens, UniProt O14727)
T3 sequence (O14727 whole entry): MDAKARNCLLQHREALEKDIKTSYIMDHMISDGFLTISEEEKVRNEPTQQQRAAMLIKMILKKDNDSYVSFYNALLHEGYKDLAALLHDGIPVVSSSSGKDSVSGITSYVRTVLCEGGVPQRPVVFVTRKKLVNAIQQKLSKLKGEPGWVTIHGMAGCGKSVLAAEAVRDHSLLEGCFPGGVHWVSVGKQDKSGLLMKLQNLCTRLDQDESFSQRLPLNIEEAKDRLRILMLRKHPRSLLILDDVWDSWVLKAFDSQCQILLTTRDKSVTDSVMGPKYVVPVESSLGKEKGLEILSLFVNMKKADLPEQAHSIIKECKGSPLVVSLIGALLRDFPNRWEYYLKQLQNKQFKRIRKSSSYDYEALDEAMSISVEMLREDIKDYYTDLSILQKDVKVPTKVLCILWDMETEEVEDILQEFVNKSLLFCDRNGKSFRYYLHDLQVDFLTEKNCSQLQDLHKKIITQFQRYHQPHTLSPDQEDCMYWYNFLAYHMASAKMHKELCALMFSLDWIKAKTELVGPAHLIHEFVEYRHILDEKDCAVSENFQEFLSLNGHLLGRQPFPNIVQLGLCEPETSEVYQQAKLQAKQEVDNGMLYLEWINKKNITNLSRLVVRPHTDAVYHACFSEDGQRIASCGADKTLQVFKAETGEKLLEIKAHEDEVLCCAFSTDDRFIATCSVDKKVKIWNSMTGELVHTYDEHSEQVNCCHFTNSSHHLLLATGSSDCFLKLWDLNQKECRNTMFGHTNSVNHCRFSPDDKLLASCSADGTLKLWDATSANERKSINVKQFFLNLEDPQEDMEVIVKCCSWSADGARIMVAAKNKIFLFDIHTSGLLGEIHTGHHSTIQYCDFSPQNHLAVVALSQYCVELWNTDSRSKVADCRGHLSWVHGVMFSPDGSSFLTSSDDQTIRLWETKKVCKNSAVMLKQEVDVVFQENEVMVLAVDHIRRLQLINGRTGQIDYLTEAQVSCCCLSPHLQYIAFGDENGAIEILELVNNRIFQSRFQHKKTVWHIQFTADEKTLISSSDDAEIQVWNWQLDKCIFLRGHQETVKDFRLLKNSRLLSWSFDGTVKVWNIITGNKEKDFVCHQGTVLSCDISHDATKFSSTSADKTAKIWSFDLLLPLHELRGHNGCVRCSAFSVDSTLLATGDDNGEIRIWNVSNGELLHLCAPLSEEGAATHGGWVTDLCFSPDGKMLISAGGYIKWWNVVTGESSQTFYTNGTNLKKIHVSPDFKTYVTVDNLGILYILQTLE

Row | Compound | EC50 [1] | IC50 [2] | IC50 [3]
1 | Cc1cccc(C)c1-n1cccc1/C=C1\SC(=S)N(c2cccc(C(=O)O)c2)C1=O | 9.09 µM (active) |  | 
2 | Oc1ccc(/C=N/Nc2cc(N3CCCC3)nc(N3CCCC3)n2)cc1 |  | 22.1 µM (active) | 0.707 µM (active)
3 | COc1ccc(S(=O)(=O)/N=C2\C=C(Nc3ccc(O)cc3)C(=O)c3ccccc32)cc1 | 0.141 µM (active) |  | 0.441 µM (active)
4 | COc1ccc(/C=N/Nc2cc(N3CCCC3)nc(N3CCCC3)n2)cc1 |  | 7.52 µM (active) | 2.63 µM (active)
